Test results: patent US20230416412A1, “PREVENTION OR MITIGATION OF T-CELL ENGAGING AGENT-RELATED ADVERSE EFFECTS” (Hoffmann-La Roche Inc., priority 2022, published 2023)

Tests used:
[1] = tested on: cytokine release in whole blood; assay: Whole blood assay: CD20-TCB-mediated cytokine release, serum cytokines by Luminex; format: cell-based, human
Description: (§1) FIGS. 1A-1N. Effect of the NLRP3 inhibitor on CD20-TCB-mediated T cell activation, B cell depletion and cytokine release. Fresh whole blood from a healthy donor (donor 1) was incubated with escalating doses of CD20-TCB and 10 μM NLRP3 inhibitor. At 24 hrs, blood from technical replicates was pooled and lysed. FIG. 1A. The killing of CD19+ B cells was measured by flow cytometry. FIG. 1B and FIG. 1C. The expression of CD25 on CD4+ (1B) and CD8+ (1C) T cells was measured by flow cytometry. At 24 hrs, serum from technical replicates were collected and pooled. FIG. 1D-FIG. 1N. The levels of IFN-γ (1D), IL-2 (1E), IL-1β (1F), IL-1Ra (1G), TNF-α (1H), IP-10 (1I), IL-6 (1J), IL-8 (1K), MCP-1 (1L), MIP-1α (1M) and MIP-1β (1N) were measured by Luminex.
(§2) FIGS. 2A-2N. Effect of the NLRP3 inhibitor on CD20-TCB-mediated T cell activation, B cell depletion and cytokine release. Fresh whole blood from a healthy donor (donor 2) was incubated with escalating doses of CD20-TCB and 10 μM NLRP3 inhibitor. At 24 hrs, blood from technical replicates was pooled and lysed. FIG. 2A. The killing of CD19+ B cells was measured by flow cytometry. FIG. 2B and FIG. 2C. The expression of CD25 on CD4+ (FIG. 2B) and CD8+ (FIG. 2C) T cells was measured by flow cytometry. At 24 hrs, serum from technical replicates were collected and pooled. FIG. 2D-FIG. 2N. The levels of IFN-γ (2D), IL-2 (2E), IL-1β (2F), IL-1Ra (2G), TNF-α (2H), IP-10 (2I), IL-6 (2J), IL-8 (2K), MCP-1 (2L), MIP-1α (2M) and MIP-1β (2N) were measured by Luminex.
(§3) FIGS. 3A-3N. Effect of the NLRP3 inhibitor on CD20-TCB-mediated T cell activation, B cell depletion and cytokine release. Fresh whole blood from a healthy donor (donor 3) was incubated with escalating doses of CD20-TCB and […] NLRP3 inhibitor. At 24 hrs, blood from technical replicates was pooled and lysed. FIG. 3A. The killing of CD19+ B cells was measured by flow cytometry. FIG. 3B and FIG. 3C. The expression of CD25 on CD4+ (3B) and CD8+ (3C) T cells was measured by flow cytometry. At 24 hrs, serum from technical replicates were collected and pooled. FIG. 3D-FIG. 3N. The levels of IFN-γ (3D), IL-2 (3E), IL-1β (3F), IL-1Ra (3G), TNF-α (3H), IP-10 (3I), IL-6 (3J), IL-8 (3K), MCP-1 (3L), MIP-1α (3M) and MIP-1β (3N) were measured by Luminex.
(§4) To assess the effects of the NLRP3 inhibitor on TCB-mediated target cell killing and T cell activation, we conducted whole blood assays using fresh whole blood from 3 healthy donors incubated with escalating concentrations of CD20-TCB (SEQ ID NOs 4-23) in combination with 10 μM of the NLRP3 inhibitor (MCC950, Sigma-Aldrich). At 24 hrs, the killing of CD19+ B cells together with the expression of CD25 on CD4+ and CD8+ T cells was measured in whole blood by flow cytometry.
The levels of cytokines were measured by Luminex in the serum of whole blood treated with CD20-TCB in the presence and in the absence of the NLRP3 inhibitor to determine the effects of the NLRP3 inhibitor on cytokine release.

cytokine release = assay: CD20-TCB-mediated cytokine release in vivo, serum cytokines by Luminex; set-up: species or system humanized NSG mice; details: 3 hrs after first CD20-TCB treatment
Description: FIGS. 5A-5E. Effect of the NLRP3 inhibitor on IL-2, IFN-γ, TNF-α, IL-1β, and IL-6 induced by CD20-TCB. Treatment was performed as described in FIG. 4. Blood was collected by tail-vein bleedings 3 hrs after the 1st CD20-TCB therapy. The levels of FIG. 5A. IL-2, FIG. 5B. IFN-γ, FIG. 5C. TNF-α, FIG. 5D. IL-1β, and FIG. 5E. IL-6 were measured in the serum by Luminex. Means of n=5 mice+/−SEM.
FIG. 6. Heatmap representing the effects of the NLRP3 inhibitor on CD20-TCB mediated cytokine release. Treatment was performed as described in FIG. 4. Blood was collected by tail-vein bleeding 3 hrs after the 1st CD20-TCB therapy. The levels of IFN-γ, IL-2, TNF-α, IP-10, IL-1β, IL-1Ra, IL-6, IL-8, MCP-1, MIP-1α and MIP-1β were measured in serum by Luminex for n=5 mice per group.
The effects of the NLRP3 inhibitor on anti-tumor efficacy and cytokine release mediated by CD20-TCB in vivo were evaluated using a diffused large B cell lymphoma (DLBCL) tumor model in humanized NSG mice. Briefly, humanized NSG mice were engrafted with OCI-LY18 tumor cells. When the tumor volume reached 200 mm^3, mice were randomized in groups of 14 based on their tumor size. They were then pre-treated with 30 mg/kg obinutuzumab (Gazyva® pre-treatment, GpT) 7 days before being treated with CD20-TCB to deplete peripheral B cells. The NLRP3 inhibitor was given 1 hr before and 4 and 24 hrs after the first CD20-TCB treatment as well as 1 hr before and 4 hrs after the second CD20-TCB treatment.
The levels of cytokines were measured in serum collected by tail-vein bleedings 3 hrs after the first treatment with CD20-TCB to determine the effects of the NLRP3 inhibitor on CD20-TCB-mediated cytokine release in vivo. In line with previous in vitro findings, the NLRP3 inhibitor retained IL-2, IFN-γ, TNF-α while reducing IL-6, IL-8 and IL-1β levels induced by CD20-TCB (FIGS. 5A-E, FIG. 6). In addition, the NLRP3 inhibitor modified the cytokine profile induced by CD20-TCB treatment, as indicated by the heat map showing the levels of IFN-γ, IL-2, TNF-α, […], IL-1Ra, IL-6, IL-8, MCP-1, MIP-1α and […] which were measured 3 hrs after the first treatment with CD20-TCB (FIG. 6). Last, we measured the body weight of each animal before and after the first treatment with CD20-TCB to calculate the body weight change. […] (FIG. 7).

[2] = Body weight change after first CD20-TCB therapy; format: in vivo, humanized NSG mice; details: before and after the first CD20-TCB treatment, 20 mg/kg NLRP3 inhibitor i.p.
Description: FIG. 7. Effect of the NLRP3 inhibitor on body weight loss induced by the first CD20-TCB therapy. Treatment was performed as described in FIG. 4. The body weight of each animal was measured before and after the first therapy with CD20-TCB to calculate body weight change [%]. Means+/−SEM.
The effects of the NLRP3 inhibitor on anti-tumor efficacy and cytokine release mediated by CD20-TCB in vivo were evaluated using a diffused large B cell lymphoma (DLBCL) tumor model in humanized NSG mice. Briefly, humanized NSG mice were engrafted with OCI-LY18 tumor cells. When the tumor volume reached 200 mm^3, mice were randomized in groups of 14 based on their tumor size. […]
The levels of cytokines were measured in serum collected by tail-vein bleedings 3 hrs after the first treatment with CD20-TCB to determine the effects of the NLRP3 inhibitor on CD20-TCB-mediated cytokine release in vivo. […] In addition, the NLRP3 inhibitor modified the cytokine profile induced by CD20-TCB treatment, as indicated by the heat map showing the levels of IFN-γ, IL-2, TNF-α, […], IL-1Ra, IL-6, IL-8, MCP-1, MIP-1α and […] which were measured 3 hrs after the first treatment with CD20-TCB (FIG. 6). Last, we measured the body weight of each animal before and after the first treatment with CD20-TCB to calculate the body weight change. […]

CD19+ B cells = assay: Whole blood assay: CD20-TCB-induced killing of CD19+ B cells (flow cytometry); format: cell-based, human; details: 10 μM NLRP3 inhibitor, escalating CD20-TCB, fresh whole blood of 3 healthy donors, 24 hrs
Description: as §1
FIGS. 2A-2N. Effect of the NLRP3 inhibitor on CD20-TCB-mediated T cell activation, B cell depletion and cytokine release. […] The killing of CD19+ B cells was measured by flow cytometry. […] The expression of CD25 on CD4+ (FIG. 2B) and CD8+ (FIG. 2C) T cells was measured by flow cytometry. […] The levels of IFN-γ (2D), IL-2 (2E), IL-1β (2F), IL-1Ra (2G), TNF-α (2H), IP-10 (2I), IL-6 (2J), IL-8 (2K), MCP-1 (2L), MIP-1α (2M) and MIP-1β (2N) were measured by Luminex.
FIGS. 3A-3N. […] The killing of CD19+ B cells was measured by flow cytometry. […] The expression of CD25 on CD4+ (3B) and CD8+ (3C) T cells was measured by flow cytometry. […]

OCI-LY18 tumor cells = assay: Anti-tumor efficacy of CD20-TCB in DLBCL tumor model in humanized NSG mice; format: in vivo; details: 20 mg/kg NLRP3 inhibitor i.p.
Description: FIGS. 4A-4B. Effect of the NLRP3 inhibitor on CD20-TCB-mediated anti-tumor efficacy. OCI-Ly18-bearing humanized NSG mice were pre-treated with 30 mg/kg obinutuzumab (Gazyva® pre-treatment, Gpt, dotted black arrow) and then treated with escalating doses of CD20-TCB (black arrows, 0.5 mg/kg on the 1st treatment, 1 mg/kg on the 2nd treatment and 2 mg/kg on the 3rd treatment) by intravenous (i.v.) injections. 20 mg/kg NLRP3 inhibitor (grey arrows) was given by intraperitoneal injections 1 hr before, 4 hrs and 24 hrs after the 1st CD20-TCB therapy as well as 1 hr before and 4 hrs after the 2nd CD20-TCB therapy. FIG. 4A. Tumor growth inhibition curves, means−/+SD. Tumor volumes were calculated from caliper measurements conducted 2 or 3 times per week. FIG. 4B. […] Tumors were digested and the counts of CD8+ T cells were measured by flow cytometry.
The effects of the NLRP3 inhibitor on anti-tumor efficacy and cytokine release mediated by CD20-TCB in vivo were evaluated using a diffused large B cell lymphoma (DLBCL) tumor model in humanized NSG mice. […]
To assess the effects of the NLRP3 inhibitor on tumor growth, tumor volumes were calculated from caliper measurements twice or three times per week. Furthermore, the counts of CD8+ T cells were measured by flow cytometry in tumors collected 24 hrs after the third treatment with CD20-TCB.

CD4+ and CD8+ T cells = assay: Whole blood assay: CD20-TCB-induced T cell activation, CD25 expression (flow cytometry); format: cell-based, human; details: 10 μM NLRP3 inhibitor, 24 hrs
Description: as §1, §2, §3, §4

[3] = 10 μM NLRP3 inhibitor with CD20-TCB, whole blood serum, 24 hrs, 3 donors
[4] = 10 μM NLRP3 inhibitor with CD20-TCB, whole blood serum, 24 hrs, in all 3 donors

Structure (SMILES): CC(C)(O)c1coc(S(=O)(=O)NC(=O)Nc2c3c(cc4c2CCC4)CCC3)c1 [NLRP3 inhibitor, MCC950]
- level of IFN-γ [1, 3]: did not influence
- level of IL-1Ra [1, 3]: did not influence
- level of IL-2 [1, 3]: did not influence
- level of IP-10 [1, 3]: did not influence
- level of MCP-1 [1, 3]: did not influence
- level of MIP-1α [1, 3]: did not influence
- level of MIP-1β [1, 3]: did not influence
- level of TNF-α [1, 3]: did not influence
- level of IL-6 ([1]; 10 μM NLRP3 inhibitor with CD20-TCB, whole blood serum, 24 hrs, in 2 out of 3 donors): reduced
- level of IL-1β [1, 4]: reduced
- level of IL-8 [1, 4]: reduced
- TCB-induced cytokine release ([1]; general statement): reduce
- serum IFN-γ level induced by CD20-TCB (cytokine release; 20 mg/kg NLRP3 inhibitor i.p.): retained
- serum IL-1β level induced by CD20-TCB (cytokine release; 20 mg/kg NLRP3 inhibitor i.p.): reducing
- serum IL-2 level induced by CD20-TCB (cytokine release; 20 mg/kg NLRP3 inhibitor i.p.): retained
- serum IL-6 level induced by CD20-TCB (cytokine release; 20 mg/kg NLRP3 inhibitor i.p.): reducing
- serum IL-8 level induced by CD20-TCB (cytokine release; 20 mg/kg NLRP3 inhibitor i.p.): reducing
- serum TNF-α level induced by CD20-TCB (cytokine release; 20 mg/kg NLRP3 inhibitor i.p.): retained
- cytokine profile induced by CD20-TCB treatment (heat map) (cytokine release; 11 cytokines in serum): modified
- body weight loss induced by CD20-TCB [2]: prevented body weight loss
- CD20-TCB-induced B cell depletion (percentage of CD19+ B cells among CD45+ cells) (CD19+ B cells): minimally interfered
- CD20-TCB-induced B cell depletion (percentage of CD19+ B cells among CD45+ cells) (CD19+ B cells; listed as MCC950): retaining
- anti-tumor efficacy mediated by CD20-TCB (tumor volume) (OCI-LY18 tumor cells; obinutuzumab pre-treatment, CD20-TCB 0.5, 1, 2 mg/kg i.v. weekly): did not interfere
- CD8+ T cell infiltration in tumors (OCI-LY18 tumor cells; 24 hrs after the third CD20-TCB treatment, flow cytometry): did not interfere
- T cell activation induced by CD20-TCB (CD4+ and CD8+ T cells): did not interfere
- T cell activation induced by CD20-TCB (CD4+ and CD8+ T cells; listed as MCC950): retaining
- expression of the activation marker CD25 on CD4+ T cells (CD4+ and CD8+ T cells; escalating CD20-TCB, 3 donors): did not prevent
- expression of the activation marker CD25 on CD8+ T cells (CD4+ and CD8+ T cells; escalating CD20-TCB, 3 donors): did not prevent
